Reference: patent US10024862B2, “Recognition of cellular target binding by a bioactive agent using intracellular bioluminescence resonance energy transfer” (Promega Corporation, priority 2012, dated 2018)

Legend:
[1] = biological target: 11S-BRD4/114-Histone H3.3 complex (Homo sapiens, UniProt O60885); experiment: Competitive displacement of iBET-NCT tracer from 11S-BRD4/Histone H3.3-114 complex, BRET (Example 22); assay type: binding; conditions: HEK293 cells, 2 uM iBET-NCT/PBI-4966 tracer, FIG. 28
NanoLuc-p38alpha = biological target: T1, NanoLuc-p38alpha (Homo sapiens, UniProt Q16539); experiment: BRET tracer binding to NanoLuc-p38alpha in HEK293 cells (Example 10); conditions: serially-diluted tracer, 37° C. two hours, FIG. 11
T1 construct: expressed in transfected cells; host or cells: HEK293
Experimental: (§1) Cells were incubated at 37° C. for two hours.

[2] = system: NanoLuc fusions to various members of the MAPK pathway; experiment: Tracer selectivity across p38/MAPK pathway NanoLuc fusions, BRET response ratio (Example 12); assay type: binding; conditions: HEK293 cells, 2 uM tracer with or without 4 uM BIRB796, FIG. 13
Experimental: (§2) Cells were incubated at 37° C. for two hours. […] To determine response ratios, the BRET values with tracer alone were divided by the BRET values with tracer+unmodified BIRB796.

PKCalpha-NanoLuc [3] = biological target: T2, PKCalpha-NanoLuc (Homo sapiens, UniProt P17252); experiment: Tracer BRET with PKCalpha-NanoLuc in MAPK panel (Example 12); assay type: binding; conditions: HEK293 cells, 2 uM tracer with or without 4 uM BIRB796, FIG. 13
T2 construct: expressed in transfected cells; host or cells: HEK293
Experimental: as §2

PKCalpha-NanoLuc [4] = biological target: T2, PKCalpha-NanoLuc; experiment: Tracer affinity BRET, PKCalpha-NanoLuc (Example 13); assay type: binding; conditions: HEK293 cells, serially-diluted tracer with or without 4 uM BIRB796, FIGS. 14 and 15
Experimental: as §1

NanoLuc-HDAC6 [5] = biological target: T3, NanoLuc-HDAC6 (Homo sapiens, UniProt Q9UBN7); experiment: Tracer affinity BRET, NanoLuc-HDAC6 (Example 13); assay type: binding; conditions: HEK293 cells, serially-diluted tracer with or without 4 uM BIRB796, FIGS. 14 and 15
T3 construct: expressed in transfected cells; host or cells: HEK293
Experimental: as §1

[6] = system: panel of 11 kinases (N- and C-terminal NanoLuc fusions); experiment: NanoLuc fusion protein array screen, cell-free TNT expression, BRET response ratio (Example 17); assay type: binding; conditions: cell-free TNT reactions diluted 1:100, tracer with or without excess free drug, 2 h room temperature, FIG. 19
Experimental: Each TNT® reaction was diluted 1:100 in PBS and plated in replicates into wells of 96-well plates. […] For each TNT® reaction, 4 replicates with 2 uM BIRB TOM/4 replicates with 2 uM BIRB-TOM+4 uM BIRB796 (total of 2×96-well plates) and 4 replicas with 1 uM Dasatinib-TOM/4 replicates with 1 uM Dasatinib-TOM+5 uM Dasatinib (total of 2×96-well plates) were performed. The reactions were incubated with constant mixing for 2 h at room temperature. […] To determine response ratios, the BRET values with tracer alone were divided by the BRET values with tracer+unmodified.

NanoLuc-HDAC6 [7] = biological target: T3, NanoLuc-HDAC6; experiment: Intracellular BRET tracer binding to NanoLuc-HDAC6 (Example 1); conditions: HEK293 cells, compared to SAHA-TMR (PBI-4967), FIG. 2
Experimental: HEK293 cells were transfected using FuGene HD (Promega Corp.) with plasmid DNA encoding a NanoLuc-HDAC6 fusion protein. NanoLuc-HDAC6 DNA was diluted 1:1000 with a promoterless carrier DNA (pGEM3Z) to yield a final concentration of 50 ng/well total DNA in 96-well plate format (at a seeding density of 20,000 cells/well). Twenty-four hours post-transfection, cells were then incubated with serially-diluted tracer in the presence or absence of a molar excess of unlabeled SAHA (as a specificity control). Following equilibration with the drug tracers, furimazine (a coelenterazine derivative substrate for NanoLuc; Promega Corp.) was added at a concentration of 20 uM, and BRET was quantified on a Varioskan luminometer. The specific BRET signal was calculated by subtracting the non-specific signal (in the presence of unlabeled SAHA) from the signal generated from the SAHA tracer alone.

HDAC1 = biological target: T4, HDAC1 (Homo sapiens, UniProt Q13547); experiment: SAHA tracer BRET with HDAC1 NANOLUC fusion in HeLa cells (Example 23); assay type: binding; conditions: FIG. 29
T4 construct: expressed in transfected cells; host or cells: HeLa
Experimental: (§3) HeLa cells were transfected with plasmid DNA encoding NANOLUC fusions with the entire family of non-sirtuin histone deacetylases (HDACs 1-11). […] Cells were incubated at 37° C. for two hours. […] BRET was then measured on a BMG Clariostar luminometer equipped with 450 nm bandpass and 610 nm longpass filters. […] To determine specific, background corrected BRET values, the nonspecific BRET values at each concentration of tracer were subtracted from BRET values with tracer alone.

HDAC2 = biological target: T5, HDAC2 (Homo sapiens, UniProt Q92769); experiment: SAHA tracer BRET with HDAC2 NANOLUC fusion in HeLa cells (Example 23); assay type: binding; conditions: FIG. 29
T5 construct: expressed in transfected cells; host or cells: HeLa
Experimental: as §3

HDAC3 = biological target: T6, HDAC3 (Homo sapiens, UniProt O15379); experiment: SAHA tracer BRET with HDAC3 NANOLUC fusion in HeLa cells (Example 23); assay type: binding; conditions: FIG. 29
T6 construct: expressed in transfected cells; host or cells: HeLa
Experimental: as §3

HDAC8 = biological target: T7, HDAC8 (Homo sapiens, UniProt Q9BY41); experiment: SAHA tracer BRET with HDAC8 NANOLUC fusion in HeLa cells (Example 23); assay type: binding; conditions: FIG. 29
T7 construct: expressed in transfected cells; host or cells: HeLa
T7 sequence (Q9BY41 1-377): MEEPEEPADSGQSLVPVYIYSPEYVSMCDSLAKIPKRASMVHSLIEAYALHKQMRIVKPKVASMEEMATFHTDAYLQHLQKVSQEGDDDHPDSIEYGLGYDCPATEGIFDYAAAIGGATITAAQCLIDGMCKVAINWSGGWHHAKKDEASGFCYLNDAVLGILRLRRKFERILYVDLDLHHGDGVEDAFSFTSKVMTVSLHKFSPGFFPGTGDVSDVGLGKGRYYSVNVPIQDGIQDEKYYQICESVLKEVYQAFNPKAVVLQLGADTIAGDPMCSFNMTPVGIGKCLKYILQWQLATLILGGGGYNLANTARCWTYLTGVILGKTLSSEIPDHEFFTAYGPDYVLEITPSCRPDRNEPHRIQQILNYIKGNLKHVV
Experimental: as §3

HDAC6 = biological target: T8, HDAC6 (Homo sapiens, UniProt Q9UBN7); experiment: SAHA tracer BRET with HDAC6 NANOLUC fusion in HeLa cells (Example 23); assay type: binding; conditions: FIG. 30
T8 construct: expressed in transfected cells; host or cells: HeLa
Experimental: as §3

HDAC10 = biological target: T9, HDAC10 (Homo sapiens, UniProt Q969S8); experiment: SAHA tracer BRET with HDAC10 NANOLUC fusion in HeLa cells (Example 23); assay type: binding; conditions: FIG. 30
T9 construct: expressed in transfected cells; host or cells: HeLa
T9 sequence (Q969S8 1-669): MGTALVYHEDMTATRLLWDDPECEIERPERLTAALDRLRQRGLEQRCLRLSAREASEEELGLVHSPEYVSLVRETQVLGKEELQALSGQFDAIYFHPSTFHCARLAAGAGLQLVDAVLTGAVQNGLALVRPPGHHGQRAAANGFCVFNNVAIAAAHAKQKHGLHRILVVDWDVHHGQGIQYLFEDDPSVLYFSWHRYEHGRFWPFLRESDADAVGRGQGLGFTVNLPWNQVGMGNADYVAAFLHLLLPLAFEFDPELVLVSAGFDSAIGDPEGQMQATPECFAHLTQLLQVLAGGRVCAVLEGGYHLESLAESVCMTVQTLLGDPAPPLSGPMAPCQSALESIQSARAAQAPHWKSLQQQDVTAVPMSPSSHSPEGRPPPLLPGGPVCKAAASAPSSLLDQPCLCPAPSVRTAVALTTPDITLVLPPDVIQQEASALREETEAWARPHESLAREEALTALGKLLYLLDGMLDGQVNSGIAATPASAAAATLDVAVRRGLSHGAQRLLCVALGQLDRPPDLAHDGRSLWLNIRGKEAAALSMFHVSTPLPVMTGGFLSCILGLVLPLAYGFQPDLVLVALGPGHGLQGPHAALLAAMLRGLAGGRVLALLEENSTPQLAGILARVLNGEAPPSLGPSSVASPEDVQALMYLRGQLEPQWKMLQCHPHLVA
Experimental: as §3

Class IIa HDACs = experiment: SAHA tracer BRET with Class IIa HDAC NANOLUC fusions in HeLa cells (Example 23); assay type: binding; conditions: FIG. 31
Experimental: as §3

NanoLuc-HDAC6 [8] = biological target: T3, NanoLuc-HDAC6; experiment: Competitive displacement of SAHA-TOM tracer from NanoLuc-HDAC6, BRET (Example 15); assay type: binding; conditions: HEK293 cells, serially-diluted inhibitor with 1 uM SAHA-TOM (PBI-4968), two hours, FIG. 17

T3 sequence (Q9UBN7 with tags, fused parts or gaps): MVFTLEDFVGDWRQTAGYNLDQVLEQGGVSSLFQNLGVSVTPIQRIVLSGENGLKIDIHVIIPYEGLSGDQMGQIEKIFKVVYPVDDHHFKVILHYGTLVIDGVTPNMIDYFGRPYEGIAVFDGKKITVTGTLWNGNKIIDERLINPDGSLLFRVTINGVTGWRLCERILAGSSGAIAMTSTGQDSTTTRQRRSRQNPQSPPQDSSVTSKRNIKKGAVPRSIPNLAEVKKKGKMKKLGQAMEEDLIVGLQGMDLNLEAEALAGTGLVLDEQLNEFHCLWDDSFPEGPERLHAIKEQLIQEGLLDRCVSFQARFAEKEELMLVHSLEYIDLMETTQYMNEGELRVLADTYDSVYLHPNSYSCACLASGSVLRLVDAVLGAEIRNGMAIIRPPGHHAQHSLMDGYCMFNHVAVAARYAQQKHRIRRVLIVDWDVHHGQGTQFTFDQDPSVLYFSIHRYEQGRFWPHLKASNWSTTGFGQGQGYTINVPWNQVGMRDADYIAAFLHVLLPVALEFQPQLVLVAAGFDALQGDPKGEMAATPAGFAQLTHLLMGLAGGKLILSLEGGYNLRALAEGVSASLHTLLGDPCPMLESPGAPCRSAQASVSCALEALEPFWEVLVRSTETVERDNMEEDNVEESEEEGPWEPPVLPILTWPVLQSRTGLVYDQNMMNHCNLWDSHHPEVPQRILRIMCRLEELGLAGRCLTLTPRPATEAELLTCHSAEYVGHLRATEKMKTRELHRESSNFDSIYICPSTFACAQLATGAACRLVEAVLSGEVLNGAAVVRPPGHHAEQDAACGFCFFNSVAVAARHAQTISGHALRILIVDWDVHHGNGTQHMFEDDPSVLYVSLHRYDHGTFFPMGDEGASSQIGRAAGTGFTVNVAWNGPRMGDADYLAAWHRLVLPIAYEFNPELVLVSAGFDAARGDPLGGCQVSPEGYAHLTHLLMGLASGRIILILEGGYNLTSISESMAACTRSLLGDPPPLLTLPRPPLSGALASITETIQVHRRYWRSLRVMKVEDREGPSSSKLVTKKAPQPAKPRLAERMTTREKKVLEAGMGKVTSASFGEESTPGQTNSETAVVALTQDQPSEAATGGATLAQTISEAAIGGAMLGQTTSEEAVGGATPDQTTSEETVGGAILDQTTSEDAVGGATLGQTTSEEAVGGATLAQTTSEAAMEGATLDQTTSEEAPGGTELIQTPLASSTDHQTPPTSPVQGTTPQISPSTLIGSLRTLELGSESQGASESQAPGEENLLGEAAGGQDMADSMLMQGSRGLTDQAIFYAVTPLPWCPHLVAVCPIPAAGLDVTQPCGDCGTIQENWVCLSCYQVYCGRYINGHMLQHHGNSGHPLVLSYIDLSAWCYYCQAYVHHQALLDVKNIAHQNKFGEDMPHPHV
T8 sequence (Q9UBN7 with tags, fused parts or gaps): as the sequence (Q9UBN7 with tags, fused parts or gaps) above
T1 sequence (Q16539 whole entry): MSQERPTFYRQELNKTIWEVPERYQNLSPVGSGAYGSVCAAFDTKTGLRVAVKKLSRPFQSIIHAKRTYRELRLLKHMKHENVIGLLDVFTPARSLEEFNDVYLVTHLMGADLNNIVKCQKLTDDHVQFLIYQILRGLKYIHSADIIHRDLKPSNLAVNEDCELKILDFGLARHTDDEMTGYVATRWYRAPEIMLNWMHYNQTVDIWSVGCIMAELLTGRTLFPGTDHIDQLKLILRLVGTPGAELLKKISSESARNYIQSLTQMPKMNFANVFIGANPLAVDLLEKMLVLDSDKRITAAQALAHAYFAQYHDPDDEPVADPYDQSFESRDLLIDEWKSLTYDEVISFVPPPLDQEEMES
T6 sequence (O15379 whole entry, the tested form may be a part): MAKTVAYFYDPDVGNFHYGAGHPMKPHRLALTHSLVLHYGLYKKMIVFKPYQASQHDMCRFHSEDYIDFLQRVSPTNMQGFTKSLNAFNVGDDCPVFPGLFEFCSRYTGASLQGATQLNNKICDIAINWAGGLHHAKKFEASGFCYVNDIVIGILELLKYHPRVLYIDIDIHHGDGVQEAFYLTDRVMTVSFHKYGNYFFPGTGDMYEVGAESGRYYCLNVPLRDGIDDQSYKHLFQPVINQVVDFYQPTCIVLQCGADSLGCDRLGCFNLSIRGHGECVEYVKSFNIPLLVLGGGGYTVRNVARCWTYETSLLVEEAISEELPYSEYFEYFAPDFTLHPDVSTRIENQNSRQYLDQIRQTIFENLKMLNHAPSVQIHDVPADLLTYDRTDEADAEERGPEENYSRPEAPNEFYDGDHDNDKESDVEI
T4 sequence (Q13547 whole entry, species assumed, the tested form may be a part): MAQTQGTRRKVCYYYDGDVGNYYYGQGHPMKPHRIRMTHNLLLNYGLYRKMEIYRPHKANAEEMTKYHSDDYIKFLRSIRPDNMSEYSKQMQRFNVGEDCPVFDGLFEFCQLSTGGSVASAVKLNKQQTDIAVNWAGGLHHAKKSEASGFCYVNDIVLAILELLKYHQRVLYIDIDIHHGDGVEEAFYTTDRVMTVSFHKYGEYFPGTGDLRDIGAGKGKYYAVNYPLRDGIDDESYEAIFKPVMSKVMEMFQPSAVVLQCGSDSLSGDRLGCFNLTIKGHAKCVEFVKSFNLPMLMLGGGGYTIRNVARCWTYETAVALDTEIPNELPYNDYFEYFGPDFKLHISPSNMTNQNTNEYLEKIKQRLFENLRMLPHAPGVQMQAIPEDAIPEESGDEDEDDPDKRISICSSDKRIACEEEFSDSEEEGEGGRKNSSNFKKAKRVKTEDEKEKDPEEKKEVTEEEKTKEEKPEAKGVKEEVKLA
T5 sequence (Q92769 whole entry, the tested form may be a part): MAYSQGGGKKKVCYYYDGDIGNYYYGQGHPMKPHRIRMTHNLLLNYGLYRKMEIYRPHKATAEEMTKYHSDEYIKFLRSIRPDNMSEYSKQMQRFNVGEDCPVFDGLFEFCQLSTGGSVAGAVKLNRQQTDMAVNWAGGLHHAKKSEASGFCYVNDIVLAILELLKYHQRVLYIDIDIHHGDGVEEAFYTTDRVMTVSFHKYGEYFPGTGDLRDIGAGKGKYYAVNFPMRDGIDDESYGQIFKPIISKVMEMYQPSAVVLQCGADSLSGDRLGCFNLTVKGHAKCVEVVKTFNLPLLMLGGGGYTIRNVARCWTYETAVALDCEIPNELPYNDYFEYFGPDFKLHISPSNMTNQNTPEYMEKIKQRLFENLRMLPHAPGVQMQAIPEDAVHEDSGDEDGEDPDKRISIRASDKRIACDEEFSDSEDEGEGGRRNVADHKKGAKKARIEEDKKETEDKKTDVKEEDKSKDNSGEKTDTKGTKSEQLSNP

COc1cc2c(cc1-c1c(C)noc1C)ncc1[nH]c(=O)n([C@H](C)c3ccccn3)c12 [IBET 151]
effect on BRET signal (competitive binding) [1]: diminished in a dose-dependent manner

CC(C)(C)c1cc(NC(=O)Nc2ccccc2)n(-c2cccc(CNC(=O)CN)c2)n1 [PBI-4838]
EC50 (NanoLuc-p38alpha): 38 nM | selectivity of tracer (targets giving specific BRET) [2]: Jnk2, p38beta and p38alpha | specific BRET signal (PKCalpha-NanoLuc [3]): relatively little specific BRET signal | specific BRET signal (PKCalpha-NanoLuc [4]): relatively little specific BRET signal | specific BRET signal (NanoLuc-HDAC6 [5]): relatively little specific BRET signal | selectivity of tracer (hits in NanoLuc fusion array) [6]: JNk2, JNk3, MAPK14, MAPK11 and MAPK13

O=C(CCCCCCC(=O)Nc1ccc(CNC(=O)c2ccc(C(=O)O)c(C3=c4cc5c6c(c4Oc4c3cc3c7c4CCCN7CCCC3)CCC[N+]=6CCCC5)c2)cc1)NO [PBI-4968]
EC50 value for binding within living cells (NanoLuc-HDAC6 [7]): left-shifted EC50 value | specific BRET signal (NanoLuc-HDAC6 [7]): superior, specific BRET signal | BRET with tracer (HDAC1): specific BRET signals | BRET with tracer (HDAC2): specific BRET signals | BRET with tracer (HDAC3): specific BRET signals | BRET with tracer (HDAC8): specific BRET signals | BRET with tracer (HDAC6): specific BRET | BRET with tracer (HDAC10): specific BRET | BRET with tracer (Class IIa HDACs): do not generate significant BRET

Cc1nc(Nc2ncc(C(=O)Nc3c(C)cccc3Cl)s2)cc(N2CCN(CCOC(=O)NCCCCCNC(=O)c3ccc(C(=O)O)c(C4=c5cc6c7c(c5Oc5c4cc4c8c5CCCN8CCCC4)CCC[N+]=7CCCC6)c3)CC2)n1 [PBI-5170]
selectivity of tracer (hits in NanoLuc fusion array) [6]: ABL1, Src, LCK, MEK5, MAPK11 and MAPK14

O=C(CCCCCCC(=O)Nc1ccccc1)NO [SAHA, suberoylanilide hydroxamic acid]
binding efficiency to HDAC6 (NanoLuc-HDAC6 [8]): high binding efficiency
